Where two headings read alike, the source gives them in different places.
Assays:
[1] = tested on: MCF7 breast carcinoma cells; test: Cell proliferation and viability, Trypan blue exclusion assay; type: cell-based; conditions: 48 h
In short: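 Cells seeded overnight in 10% FCS, then exposed to LCL compounds at 0-20 μM in ethanol (below 0.1%) for 48 h. Viable cell numbers counted by Trypan blue exclusion under light microscope, expressed as percentage of untreated controls; duplicate samples, two or three independent experiments.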

UM-SCC-22A cells = test: MTT cell survival assay and isobologram studies; type: cell-based, human; conditions: for IC50: UM-SCC-22A, read-out: IC50, cell growth
Experimental: Human head and neck cancer cell lines UM-SCC-1 (retromolar trigone/floor of the mouth), UM-SCC-12 (primary tumor of larynx), and UM-SCC-22A cells were obtained from clinical samples. Cells were grown in DMEM containing 10% FCS and 1% penicillin/streptomycin at 37° C. in 5% CO2.
MTT cell survival assay and isobologram studies. The concentrations of agents that inhibited cell growth by 50% (IC50) were determined from cell survival plots obtained by MTT. Triplicate wells were used for each treatment. The final concentration of DMSO (a solvent for conventional ceramides, GMZ and DOX) in the growth medium was less than 0.1% (v/v) which has no effect on cell growth and survival. Pyridinium ceramides were dissolved in sterile water or growth medium. In short, after cells (5-10×10^3/well) were seeded in 96-well-plates for 24 hr, they were treated with increasing concentrations of ceramide analogs for an additional 48 or 96 hr. For combination treatments, ceramides and chemotherapeutic agents (gemcitabine (GMZ) or doxorubicin (DOX)) were added to the growth medium simultaneously during treatment. Isobologram plots were then constructed using IC50 values of the two agents alone or in combination obtained from MTT assays. A straight line joining points on x- and y-axes represent the IC50 concentrations of two agents, and the points representing the IC50 concentrations of the combination of the two agents are represented as scatter plots on the same graphs. In general, the points that fall within the left of the straight line indicate synergism. The experiments were performed as triplicates in at least 3 independent experiments.
Human head and neck cancer cell lines UM-SCC-1 (retromolar trigone/floor of the mouth), UM-SCC-14A (SCC of anterior floor of the mouth), and UM-SCC-22A (SCC of hypopharynx) cells were obtained. Cells were grown in DMEM containing 10% FCS and 1% penicillin/streptomycin at 37° C. in 5% CO2.
MTT cell survival assay and isobologram studies. The concentrations of agents that inhibited cell growth by 50% (IC50) were determined from cell survival plots obtained by MTT assays. […] In general, the points that fall within the left of the straight line indicate synergism. The experiments were performed as triplicates in at least 3 independent experiments. Error bars represent standard deviations.

UM-SCC-1 cells = test: MTT cell survival assay; type: cell-based, human; conditions: UM-SCC-1, 48 hr; read-out: IC50, growth
Experimental: Cell lines and culture conditions. […] Cells were grown in DMEM containing 10% FCS and 1% penicillin/streptomycin at 37° C. in 5% CO2. The Wi-38 human lung fibroblasts were obtained from American Type Culture Collection, and were grown in DMEM as described above. Adult human epidermal keratinocytes were purchased from Cascade Biologics, and were maintained in EpiLife medium with growth supplements as described by the manufacturer.
MTT cell survival assay and isobologram studies. […] Triplicate wells were used for each treatment. The final concentration of DMSO (a solvent for conventional ceramides, GMZ and DOX) in the growth medium was less than 0.1% (v/v) which has no effect on cell growth and survival. Pyridinium ceramides were dissolved in sterile water or growth medium. In short, after cells (5-10×10^3/well) were seeded in 96-well-plates for 24 hr, they were treated with increasing concentrations of ceramide analogs for an additional 48 or 96 hr. For combination treatments, ceramides and chemotherapeutic agents (gemcitabine (GMZ) or doxorubicin (DOX)) were added to the growth medium simultaneously during treatment. Isobologram plots were then constructed using IC50 values of the two agents alone or in combination obtained from MTT assays. […]

telomeres = test: Telomere length (TRF) in tumor tissues; type: in vivo, human; conditions: versus untreated controls
Text: FIG. 29. […] In (B), DNA samples obtained from tumors treated with GMZ (G), L-t-C6-Pyr-Cer (Cer), and the combination of L-t-C6-Pyr-Cer with GMZ (G/C, lanes 2-4, respectively) were compared to that of untreated (U) tumors (lane 1). Lanes 5 and 6 contain DNA samples with low (L) and high (H) molecular weight (3.9 and 10.2 kb, respectively) telomeres. In (D) The levels of hTERT protein in samples obtained from tumors treated with GMZ (G), L-t-C6-Pyr-Cer (Cer), and the combination of L-t-C6-Pyr-Cer with GMZ (G/Cer, lanes 2-4, respectively) were determined by Western blot analysis using rabbit polyclonal anti-hTERT antibody, and compared to that of untreated (U) tumors (lane 1). Lanes 5 and 6 contain samples from telomerase positive (+) and negative (−) extracts. Beta-actin levels of these samples were used as loading controls (lanes 1-6, lower panel). The data shown are representative of two independent trials, and error bars represent standard deviations.
Analysis of telomere length in tumor tissues. The measurement of telomere length was performed in total genomic DNA samples isolated from tumor tissues of the SCID mice using Telomere Restriction Fragment (TRF) Length measurement kit (Roche) by Southern blotting as described in Sundararaj, et al. J Biol Chem 2004; 279:6152-6162.

HNSCC tumors = test: Endogenous ceramide and SM levels in HNSCC tumors, LC/MS; set-up: species or system SCID mice; conditions: mouse, in vivo
Text: FIG. 28. […] The levels of C14-, C16-, C18-, C24-, C24:1-, dihydro-C16-ceramides, and sphingosine are shown in (A), and C18:1-, C20-ceramides, and dihydro-sphingosine, and sphingosine-1-phosphate levels are shown in (B). The levels of C16-, C22-, C-24 and C24:1-SM levels are shown in (C), and C14-, C18-, C18:1-, C20, C20:1, and C22:1 SM levels are shown in (D).

UM-SCC-22A xenografts [2] = conditions: 40 mg/kg alone or plus GMZ 80 mg/kg, 24 days
Experimental: Treatment of UM-SCC-22A (hypopharynx) xenografts in SCID mice. […] Once the xenograft achieved a standard volume, the animals were randomized to receive no treatment (control), LCL-194 alone (40 mg/kg), LCL-124 alone (40 mg/kg), LCL-124 (40 mg/kg) plus GMZ (80 mg/kg), GMZ (80 mg/kg)+DOX (2 mg/kg), or 5FU plus cisplatin (25 mg/kg each). Tumors were measured every 4 days for 24 days.
The compound was further tested in an animal model of SCID mouse and UM-SCC-22A xenografts (hypopharynx). Xenograft development and treatment was carried out by standard methods. Once the xenograft achieved a standard volume, the animals were randomized to receive no treatment (control), LCL-194 alone (40 mg/kg), LCL-124 alone (40 mg/kg), LCL-124 (40 mg/kg) plus GMZ (80 mg/kg), GMZ (80 mg/kg)+DOX (2 mg/kg), or 5FU plus cisplatin (25 mg/kg each). Tumors were measured every 4 days.

UM-SCC-14A cells = conditions: read-out: IC50, growth; UM-SCC14A, 48 hr
Experimental: MTT cell survival assay and isobologram studies. The concentrations of agents that inhibited cell growth by 50% (IC50) were determined from cell survival plots obtained by MTT assays. […] A straight line joining points on x- and y-axes represent the IC50 concentrations of GMZ and L-t-C6-Pyr-Cer alone, and the points representing the IC50 concentrations of the combination of the two agents are represented as scatter plots on the same graphs. […] The experiments were performed as triplicates in at least 3 independent experiments.

[3] = IP 40 mg/ml
Experimental: The determination of MTD, and pharmacokinetic parameters, such as clearance from the serum, and bioaccumulation in various organs, of L-t-C6-Pyr-Cer in vivo. A) MTD of L-t-C6-Pyr-Cer was determined in dose escalation studies, in which BALB/c mice were treated (by IP injections) with increasing concentrations of the compound (10-150 mg/kg), dissolved in sterile saline solution, for 24 hr. […] B and C) The levels of L-t-C6-Pyr-Cer in the serum (B) or in the vital organs (C) of the BALB/c mice were measured by LC/MS after IP injection of the compound for various time points. The experiments were performed in two independent trials as duplicates, and error bars represent standard deviations.
Animal studies. […] The maximum tolerated dose (MTD) of L-t-C6-Pyr-Cer was determined by dose escalation studies. In short, 7-week-old BALB/c mice were treated with increasing concentrations of the compound for various time intervals. Possible toxicity of the compound to the vital organs of the animals was analyzed by both gross examination, and histopathology. The accumulation of the compound in vital organs and in the serum was also determined by LC/MS as described previously Koybasi S et al. J Biol Chem 2004; 279:44311-44319).

UM-SCC-22A xenografts [4] = tested on: UM-SCC-22A xenografts
Experimental: A) Upper Panel: In vivo therapeutic efficacy of L-t-C6-Pyr-Cer in combination with GMZ was determined in SKID mice harboring the UM-SCC-22A xenografts implanted in both flanks. The animals were treated with L-t-C6-Pyr-Cer and GMZ at 40 mg/kg/each every 4 days for 20 days. […] In these experiments, each group contained 6 mice, harboring 12 tumors, in this study. Error bars represent standard deviations, and p values were calculated. […] C) The blood counts, the levels of serum enzymes, and electrolytes were analyzed in response to L-t-C6-Pyr-Cer alone or in combination with GMZ in SKID mice.
After tumors were grown to about 200-400 mm^3 (about two weeks after implantation), the mice were treated without or with chemotherapeutic agents with intraperitoneal (IP) injection (alone or in combination) at half of their maximum tolerated doses (MTD) every 4 days for 20 days. Tumor volumes and the weights of the animals were measured before each treatment, and tumor sizes were measured at the end of the study. The endpoint was tumor rate of growth and/or tumor volume, which was calculated using the formula: length×width^2×0.52. Each experiment included at least 6 mice (which harbored two SCC tumors in flanks) per each treatment, and experiments were done at least in two independent trials.

CCCCCCCCCCCCC/C=C/[C@H](O)[C@H](CO)NC(=O)CCCCC[n+]1ccccc1.[Br-] [LCL124, L-threo-2-N-[6′-(1″-Pyridinium)-hexanoyl]-sphingosine Bromide]
inhibitory effect on MCF7 cell growth (in words) [1]: caused inhibitory effect on MCF7 cell growth | interaction with GMZ, isobologram (UM-SCC-22A cells; UM-SCC-22A, 100, 250 and 500 nM with GMZ, 48 hr): decreased growth synergistically | IC50 (UM-SCC-22A cells; 48 hr, listed as L-t-C6-Pyr-Cer): 1 to 2 µM | IC50 (UM-SCC-22A cells; 48 hr, listed as L-th-C6-Pyr-Cer): ~1 µM | IC50 (UM-SCC-22A cells; 96 hr, DMEM, listed as L-th-C6-Pyr-Cer): ~0.3 µM | IC50 (UM-SCC-1 cells): 1 to 2 µM | reduction of TRF (telomere) length in tumors (telomeres): about 500 bp | effect on endogenous SM levels (HNSCC tumors): no significant changes were observed | effect on endogenous ceramides in tumor site (HNSCC tumors): did not cause any sustained elevation of endogenous ceramides | suppression of xenograft tumor growth (UM-SCC-22A xenografts [2]): can act alone or in combination with GMZ to suppress growth of chemotherapy-resistant classes of tumors | IC50 (UM-SCC-14A cells): 1 to 2 µM | accumulation in the brain or heart [3]: no significant accumulation | accumulation in the kidneys [3]: at high levels in the kidneys within 8-24 hr | time to clearance from the serum [3]: ≤ 4 h | serum level ([3]; 0.5 hr): 4,500 pmol/0.1 ml serum | serum level ([3]; 2 hr): 6,500 pmol/0.1 ml serum | level in the intestines ([3]; after 5 min): about 600 pmol/mg protein | level in the liver ([3]; after 2 hr): ~500 pmol/mg protein | accumulation in the lungs ([3]; after 24 hr): some accumulation | inhibition of HNSCC tumor growth (UM-SCC-22A xenografts [4]; 40 mg/kg/each IP every 4 days for 20 days): some inhibition of HNSCC tumor growth | blood counts, serum enzyme activities and electrolytes (UM-SCC-22A xenografts [4]; about 20 parameters): no detectable abnormalities | toxicity to vital organs, histopathology (UM-SCC-22A xenografts [4]; after completion of the study): no detectable toxicity | level in the intestines (absence of GMZ): about 120 pmol/mg protein | level in the liver (absence of GMZ): ~100 pmol/mg protein | fold higher level in tumors than in intestines or liver (absence or presence of GMZ): 3-6 fold | level in the tumors (combined with GMZ): 3,100 pmol/mg | increase of level in the tumors when combined with GMZ (mouse, in vivo): about 40% | level in the intestines (presence of GMZ): 1,000 pmol/mg protein | level in the liver (presence of GMZ): 300 pmol/mg protein | accumulation in the tumor site (single agent): about 2,200 pmol/mg

Source: US8093393B2, “Cationic ceramides, and analogs thereof, and their use for preventing or treating cancer” (MUSC Foundation for Research Development, priority 2004, dated 2012)
